We go through 14 compounds from PMC9022196 (Pharmacology Research & Perspectives, 2022).

SMILES strings stand for the structures. Values joined by “and” are separate entries in the source; they are usually repeats but may differ in a detail not shown here. Equal values may be shown once. “Also recorded” adds a separate entry of the source. Where a name gives a salt, the structure may show the parent alone. Read-outs that look alike come from different tables or passages of the source.

Data set [1] concerns LMH cells. Nature of the data set: Fluorescence-based in vitro drug screening assay. The format is cell-based, chicken. The note with it: for Fluorescence reading / Fluorescence readings compared with the […] AIA control: 18–24 h; for Fluorescence reading: ex 410/em 625 nm; for Fluorescence readings compared with the […] AIA control: in the presence of DFO, 0–1 mM; for Porphyrogenicity / PP accumulation (authors' conclusion in words): with and without DFO.

For data set [2] the following is noted: cited from earlier work; for Maximal plasma concentration: ref 39 (Nagelschmitz et al.), listed as aspirin.
For a further data set, the system named is HepG2 cells. Nature of the data set: Fluorescence-based in vitro drug screening assay. The format is cell-based, human. The note with it: 1 mM compound + DFO, 18–24 h.
The subject of another data set is HepG2 spheroids. Nature of the data set: Fluorescence-based in vitro drug screening assay in HepG2 spheroids. The format is cell-based, human. The settings on record: for Fluorescence reading compared with background: HepG2 organoids/spheroids, 0.5 mM compound with and without DFO.
A further data set deals with human liver organoids. Nature of the data set: Fluorescence-based in vitro drug screening assay in human liver organoids. The note with it: approximately 100 human liver organoids, 0.5 mM compound + DFO, 18–24 h. The format is cell-based.
Data set [3] deals with LMH cells. Nature of the data set: ATPLite cytotoxicity assay in LMH cells. The settings on record: 1 mM compound in the presence of DFO. In general terms: In ATP-based viability assays light output follows the ATP content of the culture.
A short description of data set [4]: ATPLite cytotoxicity assay in LMH cells. The settings on record: chicken, CC50, LMH cells, 18–24 h, presence of 250 μM DFO.
Data set [5] concerns hydroxymethylbilane synthase. The settings on record: human erythrocytes; cited from earlier work.
Data set [6] concerns hydroxymethylbilane synthase. The settings on record: rat livers; cited from earlier work.
Where [7] appears, read: LMH cells, […] compound + 250 μM DFO.
The mark [8] stands for this setting: humans, typically used oral doses.
Where [9] appears, read: 1 mM compound in the presence of DFO.
The mark [10] stands for this setting: LMH cells, 1 mM compound + 250 μM DFO.

Take `C#CC1(O)CC[C@H]2[C@@H]3CCC4=CC(=O)CC[C@@H]4[C@H]3CC[C@@]21CC` (mixture of isomers) [norgestrel, D (‐) norgestrel]: in the data set on LMH cells [1] (setting [7]), the Fluorescence reading came out at 6890 ± 106 RFU. In the data set with LMH cells [1] (LMH cells), the “Fluorescence readings compared with the […] AIA control” value is given as “above the 0.314‐mM AIA control” and the “Porphyrogenicity / PP accumulation (authors' conclusion in words)” value (from here on “Porphyrogenicity / PP accumulation”) is “porphyrogenic; also recorded: notable accumulation of PP”. Moreover, the Maximal serum concentration entry in [2] (setting [8]) was “approximately 14.1 ng/ml”.
In the case of `NCC(=O)CCC(=O)O` [ALA, 5‐aminolevulinic acid], the “Fold higher fluorescence readings in LMH cells than in HepG2 cells” value in the data set on LMH cells [1] (setting [9]) is reported as “approximately 2.1 fold”. In addition, the “Fold higher fluorescence readings in LMH cells than in HepG2 organoids” value with LMH cells [1] (setting [9]) is on record as around 1.9 fold. In the data set with LMH cells [1] (setting [9]), the “Fold higher fluorescence readings in LMH cells than in human liver organoids” value was around 7 fold. Also, the Fluorescence reading entry in the data set with LMH cells [1] (setting [10]) is given as “above 10 000 RFU”; in the data set on HepG2 cells it was “above 5000 RFU”; in the data set on HepG2 spheroids (approximately 200 HepG2 spheroids, 0.5 mM compound + DFO, 18–24 h), “above 6000 RFU”; in the data set with human liver organoids, “above 1600 RFU”. The “Cytotoxic effect” value with LMH cells [3] was “mild cytotoxic effects”.
Turning to `CC(=O)Nc1ccc(O)cc1` [acetaminophen], in the data set on LMH cells [1] (LMH cells), the “Porphyrogenicity / PP accumulation” value was “not porphyrogenic”. The Maximum plasma concentration entry in data set [2] (oral 1000-mg tablet, ref 40 (Hong et al.)) is “approximately 8.79 mg/L and ~0.058 mM”.
For the compound `CC(=O)Oc1ccccc1C(=O)O` [acetylsalicylic acid], the “Porphyrogenicity / PP accumulation” value in the data set with LMH cells [1] (LMH cells) was “not porphyrogenic”. Moreover, the Maximal plasma concentration in data set [2] (intravenous 500-mg dose) is 54.25 mg/L and 0.30 mM; in [2] (oral 500-mg dose) it was 4.84 mg/L and 0.027 mM.
Turning to `C[C@](N)(Cc1ccc(O)c(O)c1)C(=O)O` [alpha‐methyldopa], in the data set with LMH cells [1] (LMH cells), the “Porphyrogenicity / PP accumulation” value is on record as “did not lead to an appreciable accumulation of PP”. Moreover, in data set [4], the half-maximal cytotoxic concentration (CC50) (commonly the concentration that lowers cell viability or growth by half) is 164 µM.
The matching figures for `CCN(CCO)CCCC(C)Nc1ccnc2cc(Cl)ccc12` (stereo not drawn) [hydroxychloroquine, hydroxychloroquine sulfate]: “does not upregulate hepatic ALAS‐1” and 381 µM.
As for `CCC1(c2ccccc2)C(=O)NC(=O)NC1=O` [phenobarbital], in the data set on LMH cells [1] (setting [10]), the Fluorescence reading worked out at 7513 ± 48 RFU. The “Fluorescence readings compared with the AIA positive control” value with LMH cells [1] (LMH cells, concentrations around 0.024 mM) is given as “close to the AIA positive control”. Also, in the data set with LMH cells [1] (LMH cells), the “Fluorescence readings compared with the […] AIA control” value is listed as “above the 0.314‐mM AIA control”. Further, the “Fluorescence reading compared with background” value in the data set on HepG2 spheroids is recorded as “failed to produce fluorescence readings above background”. In data set [2] (2.9-mg/kg oral dose, ref 43 (Nelson et al.)), the Maximal serum concentration result was “approximately 5.5 mg/L; also recorded: around 0.024 mM”.
As to `O=C1NC(=O)C(c2ccccc2)(c2ccccc2)N1` [phenytoin sodium], the Maximal serum concentration entry in data set [2] (humans, oral 300-mg dose, ref 44 (Suthisisang et al.)) was “approximately 1.98 µg/ml and ~7.22 µM”.
As for `O=C1NC(=O)C(c2ccccc2)(c2ccccc2)N1` [phenytoin], the Fluorescence reading with LMH cells [1] (setting [7]) turned out to be 5913 ± 190 RFU. For the same compound, in the data set with LMH cells [1] (LMH cells), the “Fluorescence readings compared with the […] AIA control” value is “above the 0.314‐mM AIA control” and the “Porphyrogenicity / PP accumulation” value is “porphyrogenic”. The “Fluorescence reading compared with background” value in the data set on HepG2 spheroids is reported as “failed to produce fluorescence readings above background”.
With `CCCC(CCC)C(=O)O` [sodium valproate], the “Porphyrogenicity / PP accumulation” value with LMH cells [1] (LMH cells) is reported as “porphyrogenic”.
Consider `Cc1noc(NS(=O)(=O)c2ccc(N)cc2)c1C` [sulfisoxazole], for which the “Porphyrogenicity / PP accumulation” value with LMH cells [1] (LMH cells) was “neither of these drugs led to excess PP accumulation”. Moreover, the “Effect on the activity of hydroxymethylbilane synthase” value in [5] and in data set [6] was “did not affect the activity” each time.
Turning to `CCCC(CCC)C(=O)O` [valproic acid], the Maximal serum concentration is recorded as around 8.81 mM in [2] (humans, typically used oral doses (norgestrel, valproic acid)) and “approximately 1271 mg/L” in [2] (setting [8]).
For `CCCCC(=O)N(Cc1ccc(-c2ccccc2-c2nnn[nH]2)cc1)[C@H](C(=O)O)C(C)C` [valsartan], the “Porphyrogenicity / PP accumulation” value with LMH cells [1] (LMH cells) is listed as “did not show evidence of porphyrogenicity”.
Same read-out and setting: then `C[C@]12CC[C@@H]3c4ccc(O)cc4CC[C@H]3[C@@H]1CC[C@@H]2O` [β‐estradiol], with “notable accumulation of PP”.
